Experimental data from US20050222209A1, “Methods and compositions for the treatment, prevention or management of dysfunctional sleep and dysfunctional sleep associated with disease” (priority 2004, published 2005).

How the values were obtained:
[1] = cited from earlier work; for interconversion on heating (desolvation experiments): Form E: about 125° C. for about five minutes, Form B: 175° C. for about five minutes; for interconversion of polymorphic form: solvent system or relative humidity as stated; for hygroscopicity: crystalline polymorphic form
[2] = tested on: subjects; assay: Pittsburgh Sleep Quality Index study (PSQI, daily sleep diary); format: in vivo, human; details: 10 mg/day orally, 12 week study, twelve subjects
Method: Twelve subjects were treated with 10 mg/day of 3-(4-amino-1-oxo-1,3-dihydro-isoindol-2-yl)-piperidine-2,6-dione orally for 12 weeks. Subjects were seen every 2 weeks until study completion. Subjects were asked to keep a daily sleep diary asking how much interference with sleep (0-10 scale) was experienced. Patients were also asked to complete the Pittsburgh Sleep Quality Inventory (PSQI) at the start of the treatment and ever 4 weeks thereafter, Buysse, DJ et al., Journal of Psychiatric Research, 28 (2), 193-213, 1989.

| SMILES | interconversion on heating (desolvation experiments) [1] | interconversion of polymorphic form [1] | hygroscopicity [1] | further results |
| --- | --- | --- | --- | --- |
| Nc1cccc2c1CN(C1CCC(=O)NC1=O)C2=O (stereo not shown) [Form E, 3-(4-amino-1-oxo-1,3 dihydro-isoindol-2-yl)-piperidene-2,6-dione] | can convert to Form B | can convert to Form C in an acetone solvent system and to Form G in a THF solvent system | – | – |
| Nc1cccc2c1CN(C1CCC(=O)NC1=O)C2=O (stereo not shown) [3-(4-amino-1-oxo-1,3-dihydro-isoindol-2-yl)-piperidine-2,6-dione] | – | – | – | need for sleep medications [2]: significantly improved; overall sleep quality [2]: significantly improved; presence of daytime sleepiness [2]: significantly improved |
| Nc1cccc2c1CN(C1CCC(=O)NC1=O)C2=O (stereo not shown) [Form B, 3-(4-amino-1-oxo-1,3 dihydro-isoindol-2-yl)-piperidene-2,6-dione] | can convert to Form F | converts to Form E in aqueous solvent systems | – | – |
| Nc1cccc2c1CN(C1CCC(=O)NC1=O)C2=O (stereo not shown) [Form D, 3-(4-amino-1-oxo-1,3 dihydro-isoindol-2-yl)-piperidene-2,6-dione] | – | will typically convert to Form B when stressed at higher relative humidities | either weakly or not hygroscopic | – |
| Nc1cccc2c1CN(C1CCC(=O)NC1=O)C2=O (stereo not shown) [Form C, 3-(4-amino-1-oxo-1,3 dihydro-isoindol-2-yl)-piperidene-2,6-dione] | – | can convert to Form B at higher relative humidities | not hygroscopic below about 85% RH | – |
| Nc1cccc2c1CN(C1CCC(=O)NC1=O)C2=O (stereo not shown) [Form A, 3-(4-amino-1-oxo-1,3 dihydro-isoindol-2-yl)-piperidene-2,6-dione] | – | – | weakly or not hygroscopic | relative stability of polymorph ([1]; Form A: among anhydrous polymorphs, Form E: in aqueous solvent systems): most thermodynamically stable anhydrous polymorph |
